# Experimental data reported in patent US20230087118A1, “IMIDAZO[1,2-a][sequence] DERIVATIVES AND THEIR USE IN THE TREATMENT OF DISEASE” (priority 2019, published 2023).
# Molecular target: T1, IRAK4 (Homo sapiens, UniProt Q9NWZ3)
# T1 sequence (Q9NWZ3 1-460): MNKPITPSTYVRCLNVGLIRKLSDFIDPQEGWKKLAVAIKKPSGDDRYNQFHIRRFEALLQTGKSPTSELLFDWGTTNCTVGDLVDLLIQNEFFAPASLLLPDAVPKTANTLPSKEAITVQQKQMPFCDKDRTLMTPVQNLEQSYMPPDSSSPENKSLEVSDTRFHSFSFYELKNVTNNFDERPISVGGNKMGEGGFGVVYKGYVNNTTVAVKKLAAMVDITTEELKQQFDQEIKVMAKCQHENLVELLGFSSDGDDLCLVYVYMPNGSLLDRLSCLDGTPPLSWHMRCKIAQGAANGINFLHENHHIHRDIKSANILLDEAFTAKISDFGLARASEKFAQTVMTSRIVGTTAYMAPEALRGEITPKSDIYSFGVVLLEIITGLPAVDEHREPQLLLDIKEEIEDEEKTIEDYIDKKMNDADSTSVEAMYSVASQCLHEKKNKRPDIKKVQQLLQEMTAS
# Assay: biochemical
# Settings: not given
row,SMILES,IC50 [µM]
1,"CCn1ccc(NC(=O)c2cn3cc(C45CCC(C)(C4)OC5)nc3cc2OC(C)C)n1 (centres unmarked) [Example 508, N-(1-ethyl-1H-pyrazol-3-yl)-7-isopropoxy-2-(1-methyl-2-oxabicyclo[2.2.1]heptan-4-yl)imidazo[1,2-a]pyridine-6-carboxamide]",0.0023
2,"CC(C)Oc1cc2nc(C34CCC(C)(C3)OC4)cn2cc1C(=O)Nc1cccc(C(F)(F)F)c1 (centres unmarked) [Example 510, 7-Isopropoxy-2-(1-methyl-2-oxabicyclo[2.2.1]heptan-4-yl)-N-(3-(trifluoromethyl)phenyl)imidazo[1,2-a]pyridine-6-carboxamide]",0.001
3,"CC(C)Oc1cc2nc(C3CC3)cn2cc1C(=O)Nc1cccc(CC#N)n1 [Example 519, N-(6-(cyanomethyl)pyridin-2-yl)-2-cyclopropyl-7-isopropoxy-imidazo[1,2-a]pyridine-6-carboxamide]",0.003
4,"Cn1cc(-c2cccc(NC(=O)c3cn4cc(C56COC(C)(C5)C6)nc4cc3OC3CCC3)n2)cn1 [Example 520, 7-Cyclobutoxy-N-(6-(1-methyl-1H-pyrazol-4-yl)pyridin-2-yl)-2-(1-methyl-2-oxabicyclo[2.1.1]hexan-4-yl)imidazo[1,2-a]pyridine-6-carboxamide]",0.0001
5,"CC12CC(c3cn4cc(C(=O)Nc5ccn(C(F)(F)F)n5)c(OC5CCC5)cc4n3)(CO1)C2 [Example 521, 7-Cyclobutoxy-2-(1-methyl-2-oxabicyclo[2.1.1]hexan-4-yl)-N-(1-(trifluoromethyl)-1H-pyrazol-3-yl)imidazo[1,2-a]pyridine-6-carboxamide]",0.0118
6,"Cc1cc(-n2ccc(NC(=O)c3cn4cc(C56COC(C)(C5)C6)nc4cc3OC3CCC3)n2)ccn1 [Example 522, 7-Cyclobutoxy-2-(1-methyl-2-oxabicyclo[2.1.1]hexan-4-yl)-N-(1-(2-methylpyridin-4-yl)-1H-pyrazol-3-yl)imidazo[1,2-a]pyridine-6-carboxamide]",0.0005
7,"CC12CC(c3cn4cc(C(=O)Nc5ccn(C(F)F)n5)c(OC5CCC5)cc4n3)(CO1)C2 [Example 523, 7-Cyclobutoxy-N-(1-(difluoromethyl)-1H-pyrazol-3-yl)-2-(1-methyl-2-oxabicyclo[2.1.1]hexan-4-yl)imidazo[1,2-a]pyridine-6-carboxamide]",0.0023
8,"CC12CC(c3cn4cc(C(=O)Nc5ccn(C6CCC6)n5)c(OC5CCC5)cc4n3)(CO1)C2 [Example 524, 7-Cyclobutoxy-N-(1-cyclobutyl-1H-pyrazol-3-yl)-2-(1-methyl-2-oxabicyclo[2.1.1]hexan-4-yl)imidazo[1,2-a]pyridine-6-carboxamide]",0.0111
9,"CC12CC(c3cn4cc(C(=O)Nc5ccn(CC6CC6)n5)c(OC5CCC5)cc4n3)(CO1)C2 [Example 525, 7-Cyclobutoxy-N-(1-(cyclopropylmethyl)-1H-pyrazol-3-yl)-2-(1-methyl-2-oxabicyclo[2.1.1]hexan-4-yl)imidazo[1,2-a]pyridine-6-carboxamide]",0.0185
10,"COc1ncccc1NC(=O)c1cn2cc(C34COC(C)(C3)C4)nc2cc1OC1CCC1 [Example 526, 7-Cyclobutoxy-N-(2-methoxypyridin-3-yl)-2-(1-methyl-2-oxa-bicyclo[2.1.1]hexan-4-yl)imidazo[1,2-a]pyridine-6-carboxamide]",0.0003
11,"CC12CC(c3cn4cc(C(=O)Nc5ccn(CC#N)n5)c(OC5CCC5)cc4n3)(CO1)C2 [Example 527, N-(1-(cyanomethyl)-1H-pyrazol-3-yl)-7-cyclobutoxy-2-(1-methyl-2-oxabicyclo[2.1.1]hexan-4-yl)imidazo[1,2-a]pyridine-6-carboxamide]",0.0044
12,"CCn1ccc(NC(=O)c2cn3cc(C45COC(C)(C4)C5)nc3cc2OC2CCC2)n1 [Example 528, 7-Cyclobutoxy-N-(1-ethyl-1H-pyrazol-3-yl)-2-(1-methyl-2-oxabicyclo[2.1.1]hexan-4-yl)imidazo[1,2-a]pyridine-6-carboxamide]",0.0052
13,"COc1cccc(NC(=O)c2cn3cc(C45COC(C)(C4)C5)nc3cc2OC2CCC2)n1 [Example 529, 7-Cyclobutoxy-N-(6-methoxypyridin-2-yl)-2-(1-methyl-2-oxabicyclo[2.1.1]hexan-4-yl)imidazo[1,2-a]pyridine-6-carboxamide]",0.0003
14,"CC12CC(c3cn4cc(C(=O)Nc5ccn(CC(F)F)n5)c(OC5CCC5)cc4n3)(CO1)C2 [Example 530, 7-Cyclobutoxy-N-(1-(2,2-difluoroethyl)-1H-pyrazol-3-yl)-2-(1-methyl-2-oxabicyclo[2.1.1]hexan-4-yl)imidazo[1,2-a]pyridine-6-carboxamide]",0.0056
15,"Cc1cc(-n2ccc(NC(=O)c3cn4cc(C56CCC(C)(C5)OC6)nc4cc3OC3CCC3)n2)ccn1 (centres unmarked) [Example 531, 7-Cyclobutoxy-2-(1-methyl-2-oxabicyclo[2.2.1]heptan-4-yl)-N-(1-(2-methylpyridin-4-yl)-1H-pyrazol-3-yl)imidazo[1,2-a]pyridine-6-carboxamide]",0.0008

# The next lines start with the values.
row,IC50 [µM],SMILES
1,0.0055,"CC(C)Oc1cc2nc(C34CCC(C)(C3)OC4)cn2cc1C(=O)Nc1nc(C(F)(F)F)cs1 (centres unmarked) [Example 503, 7-Isopropoxy-2-(1-methyl-2-oxabicyclo[2.2.1]heptan-4-yl)-N-(4-(trifluoromethyl)thiazol-2-yl)imidazo[1,2-a]pyridine-6-carboxamide]"
2,0.0005,"CC(C)Oc1cc2nc(C34CCC(C)(C3)OC4)cn2cc1C(=O)Nc1cccn(C)c1=O (centres unmarked) [Example 505, 7-Isopropoxy-N-(1-methyl-2-oxo-1,2-dihydropyridin-3-yl)-2-(1-methyl-2-oxabicyclo[2.2.1]heptan-4-yl)imidazo[1,2-a]pyridine-6-carboxamide]"
3,0.0038,"CC(C)Oc1cc2nc(C34CCC(C)(C3)OC4)cn2cc1C(=O)Nc1ccn(C(F)(F)F)n1 (centres unmarked) [Example 506, 7-Isopropoxy-2-(1-methyl-2-oxabicyclo[2.2.1]heptan-4-yl)-N-(1-(trifluoromethyl)-1H-pyrazol-3-yl)imidazo[1,2-a]pyridine-6-carboxamide]"
4,0.0095,"Cc1nocc1NC(=O)c1cn2cc(C34CCC(C)(C3)OC4)nc2cc1OC(C)C (centres unmarked) [Example 507, 7-Isopropoxy-2-(1-methyl-2-oxabicyclo[2.2.1]heptan-4-yl)-N-(3-methylisoxazol-4-yl)imidazo[1,2-a]pyridine-6-carboxamide]"
5,0.0003,"CC(C)Oc1cc2nc(C34CCC(C)(C3)OC4)cn2cc1C(=O)Nc1cccc(C#N)n1 (centres unmarked) [Example 509, N-(6-cyanopyridin-2-yl)-7-isopropoxy-2-(1-methyl-2-oxabicyclo[2.2.1]heptan-4-yl)imidazo[1,2-a]pyridine-6-carboxamide]"
6,0.0042,"CCc1ncsc1NC(=O)c1cn2cc(C34CCC(C)(C3)OC4)nc2cc1OC(C)C (centres unmarked) [Example 511, N-(4-ethylthiazol-5-yl)-7-isopropoxy-2-(1-methyl-2-oxabicyclo[2.2.1]heptan-4-yl)imidazo[1,2-a]pyridine-6-carboxamide]"
7,0.009,"CC(C)Oc1cc2nc(C34CCC(C)(C3)OC4)cn2cc1C(=O)Nc1nccs1 (centres unmarked) [Example 512, 7-Isopropoxy-2-(1-methyl-2-oxabicyclo[2.2.1]heptan-4-yl)-N-(thiazol-2-yl)imidazo[1,2-a]pyridine-6-carboxamide]"
8,0.0003,"COc1nscc1NC(=O)c1cn2cc(C34CCC(C)(C3)OC4)nc2cc1OC(C)C (centres unmarked) [Example 513, 7-Isopropoxy-N-(3-methoxyisothiazol-4-yl)-2-(1-methyl-2-oxabicyclo[2.2.1]heptan-4-yl)imidazo[1,2-a]pyridine-6-carboxamide]"
9,0.0005,"CC(C)Oc1cc2nc(C34CCC(C)(C3)OC4)cn2cc1C(=O)Nc1cccc(C(F)F)c1 (centres unmarked) [Example 514, N-(3-(difluoromethyl)phenyl)-7-isopropoxy-2-(1-methyl-2-oxabicyclo[2.2.1]heptan-4-yl)imidazo[1,2-a]pyridine-6-carboxamide]"
10,0.0014,"CC(C)Oc1cc2nc(C34CCC(C)(C3)OC4)cn2cc1C(=O)Nc1cccc(F)c1F (centres unmarked) [Example 515, N-(2,3-difluorophenyl)-7-isopropoxy-2-(1-methyl-2-oxabicyclo[2.2.1]heptan-4-yl)imidazo[1,2-a]pyridine-6-carboxamide]"
11,0.0015,"CC(C)Oc1cc2nc(C34CCC(C)(C3)OC4)cn2cc1C(=O)Nc1nc(C(F)F)cs1 (centres unmarked) [Example 516, N-(4-(difluoromethyl)thiazol-2-yl)-7-isopropoxy-2-(1-methyl-2-oxabicyclo[2.2.1]heptan-4-yl)imidazo[1,2-a]pyridine-6-carboxamide]"
12,0.0043,"CC(C)Oc1cc2nc(C34CCC(C)(C3)OC4)cn2cc1C(=O)Nc1ccc(F)cn1 (centres unmarked) [Example 517, N-(5-fluoropyridin-2-yl)-7-isopropoxy-2-(1-methyl-2-oxabicyclo[2.2.1]heptan-4-yl)imidazo[1,2-a]pyridine-6-carboxamide]"
13,0.004,"CC(C)Oc1cc2nc(C34CCC(C)(C3)OC4)cn2cc1C(=O)Nc1ccccn1 (centres unmarked) [Example 518, 7-Isopropoxy-2-(1-methyl-2-oxabicyclo[2.2.1]heptan-4-yl)-N-(pyridin-2-yl)imidazo[1,2-a]pyridine-6-carboxamide]"

# Same assay, conditions: IRAK4 Biochemical Assay (1 mM ATP, 2 h) IC50 (μM), 1 mM ATP, 2 h, 100 pM IRAK4
row,IC50 [µM],SMILES
1,0.0018,"CC(C)Oc1cc2nc(C34CCC(C)(C3)OC4)cn2cc1C(=O)Nc1ccn(C(F)F)n1 (centres unmarked) [Example 504, N-(1-(difluoromethyl)-1H-pyrazol-3-yl)-7-isopropoxy-2-(1-methyl-2-oxabicyclo[2.2.1]heptan-4-yl)imidazo[1,2-a]pyridine-6-carboxamide]"
